Entries after “also recorded” stand apart in the source; their conditions may differ. Read-outs that look alike come from different tables or passages of the source.

The test system of assay [1] is coral calcification rates. Further details: method as in PMID 27513959. The conditions noted are these: cited from earlier work.
For a further assay, the system named is SpiCA1. Also noted: method as in References 12 and 45. The conditions noted are these: ref References 12 and 45, cited from earlier work; for SpiCA1 inhibition, in words: authors' grading of the KI values of Table 1; for Ki: coral recombinant isoform, stopped flow CO2 hydrase assay.
For a further assay, the target named is SpiCA3 (Stylophora pistillata, UniProt A0A1B0Y357). Type of assay: biochemical. How it is done: An Applied Photophysics stopped-flow instrument (Leatherhead, Surrey (UK)) has been used for assaying the CA catalyzed CO2 hydration activity. […] The un-catalyzed rates were determined in the same manner and subtracted from the total observed rates. […] The inhibition constants were obtained by non-linear least-squares methods using PRISM 3 and the Cheng-Prusoff equation, as reported earlier, and represent the mean from at least three different determinations. All CA isoforms were recombinant ones obtained in-house. All salts/small molecules were of the highest purity available, from Sigma-Aldrich (Milan, Italy).

Another assay deals with hCA I. Also noted: method as in References 12 and 45. The conditions noted are these: ref References 12 and 45, cited from earlier work; for hCA I inhibition, in words: authors' grading of the KI values of Table 1; for Ki: human recombinant isozyme, stopped flow CO2 hydrase assay.
The next assay has as its system SpiCA2. Further details: method as in References 12 and 45. The conditions noted are these: ref References 12 and 45, cited from earlier work; for SpiCA2 inhibition, in words: authors' grading of the KI values of Table 1; for Ki: coral recombinant isoform, stopped flow CO2 hydrase assay.
Another assay concerns hCA II. Also noted: method as in References 12 and 45. The following applies: cited from earlier work.
Setting [2] is: authors' grading of the KI values of Table 1.
[3] abbreviates: read-out: KI SpiCA3; recombinant coral isoform, stopped-flow CO2 hydration, 20 mM TRIS pH 8.3, 15 min preincubation; errors 5–10%, 3 assays.
Where [4] appears, read: recombinant coral isoform, stopped-flow CO2 hydration, 20 mM TRIS pH 8.3, 15 min preincubation; errors 5–10%, 3 assays; read-out: KI SpiCA3.

SpiCA3, sequence (A0A1B0Y357 entry or part of it): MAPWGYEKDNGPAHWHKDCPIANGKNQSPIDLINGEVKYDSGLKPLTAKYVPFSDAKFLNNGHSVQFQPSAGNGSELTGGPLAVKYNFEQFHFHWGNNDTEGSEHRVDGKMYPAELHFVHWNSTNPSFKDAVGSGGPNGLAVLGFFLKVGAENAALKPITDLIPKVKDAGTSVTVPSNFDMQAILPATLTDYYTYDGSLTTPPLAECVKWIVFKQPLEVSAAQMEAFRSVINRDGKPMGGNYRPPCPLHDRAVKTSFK

For the compound `CC(=O)Nc1nnc(S(N)(=O)=O)s1` [AAZ, acetazolamide], the “inhibition of coral calcification rates” value in assay [1] was “up to 73%”.
Take `CCN[C@H]1CN(CCCOC)S(=O)(=O)c2sc(S(N)(=O)=O)cc21` [BRZ, brinzolamide]: in the assay with SpiCA1, the “SpiCA1 inhibition, in words” value was “high potency inhibitors” and the Ki is 48 nM. Moreover, the “SpiCA3 inhibition, in words” value at SpiCA3 (setting [2]) is “low potency inhibitors”. For the same compound, the Ki on SpiCA3 (setting [3]) worked out at 250 nM. For the same compound, the “hCA I inhibition, in words” value in the assay with hCA I is “didn’t affect the hCAI activity”. Also, in the assay on SpiCA2, the “SpiCA2 inhibition, in words” value was “low potency inhibitors” and the inhibition constant Ki was 169 nM. For the same compound, the “hCA II inhibition, in words” value with hCA II was “high potency inhibitors”.
Take `NS(=O)(=O)c1nnc(NS(=O)(=O)c2ccccc2)s1` [BZA, benzolamide]: the figures for the Ki at SpiCA1, at SpiCA3 (setting [3]) and on SpiCA2 were 20 nM, 394 nM and 214 nM, respectively.
On to `Cc1ccc(-c2cc(C(F)(F)F)nn2-c2ccc(S(N)(=O)=O)cc2)cc1` [CLX, celecoxib], for which, in the assay with SpiCA1, the “SpiCA1 inhibition, in words” value was “high potency inhibitors” and the Ki is 34 nM. Moreover, the “SpiCA3 inhibition, in words” value at SpiCA3 (setting [2]) is given as “worst inhibitors; also recorded: low potency inhibitors”. Further, the “hCA I inhibition, in words” value in the assay on hCA I was “didn’t affect the hCAI activity”. In the assay with SpiCA2, the “SpiCA2 inhibition, in words” value was “low potency inhibitors” and the Ki was 690 nM.
Regarding `Nc1ccc(S(N)(=O)=O)cc1` [Compound 2], the Ki on SpiCA1 is 364 nM. Moreover, the “SpiCA3 inhibition, in words” value on SpiCA3 (setting [2]) is recorded as “worst inhibitors”.
For `NS(=O)(=O)c1cccc(S(N)(=O)=O)c1` [Compound 3], the Ki was 667 nM on SpiCA3 (setting [4]) and 79 nM at hCA I.
For the compound `Cc1ccc(S(N)(=O)=O)cc1` [Compound 4], the Ki at SpiCA1 was 614 nM; at SpiCA3 (setting [3]), 694 nM; at hCA I it was 78500 nM; at SpiCA2, 516 nM.
Take `NCc1ccc(S(N)(=O)=O)cc1` [Compound 5]: the Ki is 83 nM on SpiCA1 and 508 nM on SpiCA2. Also, on SpiCA3 (setting [2]), the “SpiCA3 inhibition, in words” value was “worst inhibitors”.
As to `NCCc1ccc(S(N)(=O)=O)cc1` [Compound 6], the Ki at SpiCA1 was 94 nM; on SpiCA2, 577 nM. Moreover, at SpiCA3 (setting [2]), the “SpiCA3 inhibition, in words” value is “worst inhibitors”.
On to `Nc1ccc(S(N)(=O)=O)cc1F` [Compound 7], for which the Ki at SpiCA1 was 75 nM. In addition, the “SpiCA3 inhibition, in words” value at SpiCA3 (setting [2]) is listed as “worst inhibitors”.
For `Nc1ccc(S(N)(=O)=O)cc1Cl` [Compound 8], the results for the Ki at SpiCA1 and on SpiCA3 (setting [4]) were 88 nM and 1810 nM, respectively. For the same compound, the “SpiCA3 inhibition, in words” value on SpiCA3 (setting [2]) is listed as “worst inhibitors”.
`Nc1ccc(S(N)(=O)=O)cc1Br` [Compound 9]: the Ki was 104 nM on SpiCA1, 918 nM at SpiCA3 (setting [4]) and 540 nM on SpiCA2.
Take `Nc1cc(C(F)(F)F)c(S(N)(=O)=O)cc1S(N)(=O)=O` [Compound 11]: the Ki on SpiCA1 was 367 nM; on SpiCA3 (setting [3]), 856 nM.
For `Nc1cc(Cl)c(S(N)(=O)=O)cc1S(N)(=O)=O` [Compound 12], the Ki at SpiCA1 was 295 nM; on SpiCA3 (setting [4]), 430 nM.
`Nc1nnc(S(N)(=O)=O)s1` [Compound 13]: the Ki at SpiCA1 was 105 nM; at SpiCA3 (setting [4]), 275 nM.
As to `Cn1nc(S(N)(=O)=O)sc1=N` [Compound 14], the Ki was 92 nM at SpiCA1 and 578 nM at SpiCA3 (setting [4]).
Consider `NS(=O)(=O)c1ccc(O)cc1` [Compound 15], for which, on SpiCA3 (setting [4]), the Ki was found to be 487 nM.
Still for that read-out and setting: the result for `NS(=O)(=O)c1ccc(CO)cc1` [Compound 16] reads 199 nM.
Turning to `NS(=O)(=O)c1ccc(CCO)cc1` [Compound 17], the Ki is 770 nM on SpiCA1 and 66 nM at SpiCA3 (setting [3]). At SpiCA3 (setting [2]), the “SpiCA3 inhibition, in words” value was “well inhibited”.
As for `NS(=O)(=O)c1ccc(C(=O)O)cc1` [Compound 18], the Ki on SpiCA1 is 30 nM; at SpiCA3 (setting [4]), 241 nM.
`Nc1nccc(Nc2ccc(S(N)(=O)=O)cc2)n1` [Compound 19]: the Ki was 25 nM at SpiCA1 and 83 nM at SpiCA3 (setting [3]). On SpiCA3 (setting [2]), the “SpiCA3 inhibition, in words” value is “well inhibited”.
For the compound `Nc1ccc(S(=O)(=O)Nc2nnc(S(N)(=O)=O)s2)cc1` [Compound 20], the results for the Ki at SpiCA1 and at SpiCA3 (setting [3]) were 28 nM and 74 nM, respectively. For the same compound, on SpiCA3 (setting [2]), the “SpiCA3 inhibition, in words” value is on record as “well inhibited”.
As for `NS(=O)(=O)c1ccc(CCNS(=O)(=O)c2ccc([N+](=O)[O-])cc2CO)cc1` [Compound 21], the “SpiCA3 inhibition, in words” value at SpiCA3 (setting [2]) is “well inhibited”. Also, the Ki on SpiCA3 (setting [4]) was found to be 53 nM.
With `Nc1ccc(S(=O)(=O)Nc2ccc(S(N)(=O)=O)cc2)cc1` [Compound 22], the Ki at SpiCA3 (setting [4]) stood at 568 nM.
Take `Nc1ccc(S(=O)(=O)NCc2ccc(S(N)(=O)=O)cc2)cc1` [Compound 23]: the “SpiCA3 inhibition, in words” value on SpiCA3 (setting [2]) is “well inhibited”. On SpiCA3 (setting [4]), the Ki worked out at 62 nM.
Regarding `Nc1ccc(S(=O)(=O)NCCc2ccc(S(N)(=O)=O)cc2)cc1` [Compound 24], the “SpiCA3 inhibition, in words” value at SpiCA3 (setting [2]) is “well inhibited”. Moreover, at SpiCA3 (setting [3]), the Ki was determined as 46 nM.
Regarding `CCN[C@H]1C[C@H](C)S(=O)(=O)c2sc(S(N)(=O)=O)cc21` [DZA, Dorzolamide], in the assay on SpiCA1, the “SpiCA1 inhibition, in words” value is “high potency inhibitors”. Further, in the assay on SpiCA2, the “SpiCA2 inhibition, in words” value was “low potency inhibitors”. For the same compound, the “hCA II inhibition, in words” value in the assay on hCA II is on record as “high potency inhibitors”.
On to `CCOc1ccc2nc(S(N)(=O)=O)sc2c1` [EZA, ethoxzolamide], for which the “inhibition of coral calcification rates” value in assay [1] is recorded as “up to 73%”.
Consider `NS(=O)(=O)c1cc2c(cc1Cl)NCNS2(=O)=O` [HCT, hydrochlorothiazide], for which the inhibitory constant (Ki) on SpiCA3 (setting [3]) was 243 nM.
On to `NS(=O)(=O)c1ccc(S(=O)(=O)Nc2cccc3c(Cl)c[nH]c23)cc1` [IND, indisulam], for which the Ki at SpiCA1 was 163 nM; at SpiCA3 (setting [4]), 92 nM; at SpiCA2, 394 nM. For the same compound, on SpiCA3 (setting [2]), the “SpiCA3 inhibition, in words” value is given as “well inhibited”.
`CC(=O)/N=c1/sc(S(N)(=O)=O)nn1C` [MZA, methazolamide]: the Ki on SpiCA1 is 21 nM; on SpiCA3 (setting [4]) it was 821 nM.
Regarding `O=C1NS(=O)(=O)c2ccccc21` [SAC, Saccharin], the figures for the Ki on SpiCA1, on hCA I and on SpiCA2 were 40 nM, 18500 nM and 104 nM, respectively. Besides, the “SpiCA3 inhibition, in words” value at SpiCA3 (setting [2]) was “worst inhibitors”.
Turning to `CCN1CCCC1CNC(=O)c1cc(S(N)(=O)=O)ccc1OC` (centres unmarked) [SLP, Sulpiride], the “SpiCA3 inhibition, in words” value on SpiCA3 (setting [2]) is given as “worst inhibitors”.
`NS(=O)(=O)c1ccc(N2CCCCS2(=O)=O)cc1` [SLT, sulthiame]: the Ki on SpiCA3 (setting [4]) worked out at 251 nM.
Consider `CC1(C)O[C@@H]2[C@@H](CO[C@@]3(COS(N)(=O)=O)OC(C)(C)O[C@@H]23)O1` [TPM, topiramate], for which the inhibition constant (Ki) on SpiCA1 was 29 nM; on SpiCA2, 367 nM. Moreover, the “SpiCA3 inhibition, in words” value at SpiCA3 (setting [2]) was “worst inhibitors”.
Consider `Cc1onc(-c2ccccc2)c1-c1ccc(S(N)(=O)=O)cc1` [VLX, valdecoxib], for which the “SpiCA2 inhibition, in words” value in the assay with SpiCA2 is given as “ineffective”.
On to `NS(=O)(=O)Cc1noc2ccccc12` [ZNS, zonisamide], for which the Ki at SpiCA1 is 259 nM; on SpiCA2 it was 645 nM. The “SpiCA3 inhibition, in words” value on SpiCA3 (setting [2]) is “worst inhibitors”.

Broadly, the Ki is the equilibrium dissociation constant of an inhibitor or competing ligand from its target.
